Measurements from US8034579B2, “Proteins with enhanced functionality and methods of making novel proteins using circular permutation” (Emory University, priority 2005, dated 2011).

What was measured:
Format in all cases: biochemical
[1] = target: T1, Candida antarctica lipase B (CALB) circularly permuted variant cp268, P268/T267 (Moesziomyces antarcticus, UniProt P41365); assay: Initial rate of hydrolysis of DiFMU octanoate, cp268
T1 construct: Pichia pastoris, purified
Excerpt: (§1) Kinetic analysis of protein variants: To examine the impact of circular permutation on catalysis eleven functional CALB variants with termini in or near the active site were selected for detailed kinetic characterization. The locations of the termini in these variants are shown on the structure of CALB in FIG. 6; the numbers correspond to the amino acid residue of the new terminus. Following overexpression in P. pastoris, the selected circularly permuted proteins were purified to homogeneity. The catalytic performance of these variants was determined in activity assays with two standard lipase substrates, measuring the initial rates of hydrolysis of the chromogenic substrate p-nitrophenol butyrate (pNB) and the fluorogenic substrate 6,8-difluoro-4-methylumbelliferyl (DiFMU) octanoate.
(§2) The overexpression and purification of wild type CALB was performed as described in Rotticci-Mulder, J. C. et al., Protein Expr Purif 2001, 21, (3), 386-92, which is hereby incorporated by reference. The same protocol was adopted for the isolation of circular permutation variants of CALB. Briefly, pPIC9-ca/B was linearized by SacI digestion and electroporated into P. pastoris cells (GS115). Aliquots were plated on MD His^− plates and incubated at 30° C. Colonies appeared on plates after 2 days of incubation. A single colony was picked to inoculate 25 ml BMGY medium and the culture was incubated at 30° C. until it reached an OD600 of 2-6. The cells were harvested and resuspended in BMMY medium to an OD600 of 1. Protein expression was induced by addition of methanol to a final concentration of 0.5% (v/v) every 24 hours. After 4 days of incubation, the culture medium containing the lipase was separated from the cells by centrifugation (1500 g, 4° C., 10 min).
(§3) Lipase activity was determined by measuring the initial hydrolysis rate of p-NB and DiFMU octanoate at room temperature on a Synergy-HT microtiterplate reader (Bio-Tek Instruments, Winooski, Vt.). Stock solutions of p-NB (200 mM) and DiFMU octanoate (3 mM) were prepared in DMSO. p-NB hydrolysis over a substrate range of 0-1.6 mM was measured in 50 mM K-phosphate buffer (pH 7.5) at 400 nm ( ? for p-NB=13260 M^1 cm^−1) as described in Bender, M. L. et al., J Am Chem Soc 1968, 90, (1), 201-7, which is hereby incorporated by reference. The rate of DiFMU octanoate hydrolysis was determined by measuring the DiFMU formation over a substrate range of 0-12 μM in 50 mM K-phosphate buffer (pH 7.0) at an excitation/emission wavelength 360/460 nm. Kinetic constants were calculated by fitting the initial rates to the Michaelis-Menten equation using the Origin® software (version 7; OriginLab Corporation).
(§4) The present study included ten CALB variants. […]

[2] = target: T2, Candida antarctica lipase B (CALB) circularly permuted variant cp44, G44/T43 (Moesziomyces antarcticus, UniProt P41365); assay: Initial rate of hydrolysis of DiFMU octanoate, cp44
T2 construct: Pichia pastoris, purified
Excerpt: as §1, §2, §3

[3] = target: T3, Candida antarctica lipase B (CALB) circularly permuted variant cp150, S150/V149 (Moesziomyces antarcticus, UniProt P41365); assay: Initial rate of hydrolysis of DiFMU octanoate, cp150 (S150/V149)
T3 construct: Pichia pastoris, purified
Excerpt: as §1, §2
as §3, with “Corporation). […]” for “Corporation).”

[4] = target: T4, Candida antarctica lipase B (CALB) circularly permuted variant cp148a, A148/L147 (Moesziomyces antarcticus, UniProt P41365); assay: Initial rate of hydrolysis of DiFMU octanoate, cp148a
T4 construct: Pichia pastoris, purified
Excerpt: as §1, §2
as §3, with “Corporation). […]” for “Corporation).”

[5] = target: T5, Candida antarctica lipase B (CALB), wild type, SEQ ID NO: 2, L1/P317 (Moesziomyces antarcticus, UniProt P41365); assay: Initial rate of hydrolysis of DiFMU octanoate, wild type; settings: kcat/KM (variant)/kcat/KM (wild type)
T5 sequence (P41365 26-342): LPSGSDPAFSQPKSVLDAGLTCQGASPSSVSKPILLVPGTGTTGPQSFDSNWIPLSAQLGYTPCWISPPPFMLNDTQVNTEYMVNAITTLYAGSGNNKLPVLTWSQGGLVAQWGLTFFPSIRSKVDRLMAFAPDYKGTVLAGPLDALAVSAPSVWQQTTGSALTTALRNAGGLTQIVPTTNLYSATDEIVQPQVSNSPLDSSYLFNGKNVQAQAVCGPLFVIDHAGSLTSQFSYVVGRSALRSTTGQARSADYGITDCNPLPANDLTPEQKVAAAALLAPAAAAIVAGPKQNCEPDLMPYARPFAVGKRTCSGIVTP
Excerpt: as §1, with “octanoate. […]” for “octanoate.”
(§5) Lipase activity was determined by measuring the initial hydrolysis rate of p-NB and DiFMU octanoate at room temperature on a Synergy-HT microtiterplate reader (Bio-Tek Instruments, Winooski, Vt.). Stock solutions of p-NB (200 mM) and DiFMU octanoate (3 mM) were prepared in DMSO. p-NB hydrolysis over a substrate range of 0-1.6 mM was measured in 50 mM K-phosphate buffer (pH 7.5) at 400 nm ( ? for p-NB=13260 M^1 cm^−1) as described in Bender, M. L. et al., J Am Chem Soc 1968, 90, (1), 201-7, which is hereby incorporated by reference. […]

[6] = target: T6, Candida antarctica lipase B (CALB) circularly permuted variant cp148, His-A148/L147 (Moesziomyces antarcticus, UniProt P41365); assay: Initial rate of hydrolysis of DiFMU octanoate, cp148 (His)
T6 construct: Pichia pastoris, purified
Excerpt: as §1, §2, §3

[7] = target: T7, Candida antarctica lipase B (CALB) circularly permuted variant cp144, His-L144/A141 (Moesziomyces antarcticus, UniProt P41365); assay: Initial rate of hydrolysis of DiFMU octanoate, cp144 (His)
T7 construct: secreted from Pichia pastoris GS115, purified
Excerpt: as §1, §2, §3

[8] = target: T8, Candida antarctica lipase B (CALB) circularly permuted variant cp150, His-S150A/149 (Moesziomyces antarcticus, UniProt P41365); assay: Initial rate of hydrolysis of DiFMU octanoate, cp150 (His)
T8 construct: Pichia pastoris, purified
Excerpt: as §1, §2, §3

[9] = target: T9, Candida antarctica lipase B (CALB) circularly permuted variant cp144a, L144/A141 (Moesziomyces antarcticus, UniProt P41365); assay: Initial rate of hydrolysis of DiFMU octanoate, cp144a
T9 construct: Pichia pastoris, purified
Excerpt: as §1, §2
as §3, with “Corporation). […]” for “Corporation).”

[10] = target: T4, Candida antarctica lipase B (CALB) circularly permuted variant cp148a, A148/L147; assay: Initial rate of hydrolysis of pNB, cp148a
Excerpt: as §1, §2
as §3, with “Corporation). […]” for “Corporation).”

[11] = target: T7, Candida antarctica lipase B (CALB) circularly permuted variant cp144, His-L144/A141; assay: Initial rate of hydrolysis of pNB, cp144 (His)
Excerpt: as §1, §2, §3

[12] = target: T9, Candida antarctica lipase B (CALB) circularly permuted variant cp144a, L144/A141; assay: Initial rate of hydrolysis of pNB, cp144a
Excerpt: as §1, §2
as §3, with “Corporation). […]” for “Corporation).”

[13] = target: T1, Candida antarctica lipase B (CALB) circularly permuted variant cp268, P268/T267; assay: Initial rate of hydrolysis of pNB, cp268
Excerpt: as §1, §2, §3, §4

[14] = target: T6, Candida antarctica lipase B (CALB) circularly permuted variant cp148, His-A148/L147; assay: Initial rate of hydrolysis of pNB, cp148 (His)
Excerpt: as §1, §2, §3

[15] = target: T10, Candida antarctica lipase B (CALB) circularly permuted variant cp150, His-S150/V149 (Moesziomyces antarcticus, UniProt P41365); assay: Initial rate of hydrolysis of pNB, cp150 (His)
T10 construct: Pichia pastoris, purified
Excerpt: as §1, §2, §3

[16] = target: T2, Candida antarctica lipase B (CALB) circularly permuted variant cp44, G44/T43; assay: Initial rate of hydrolysis of pNB, cp44
Excerpt: as §1, §2, §3

[17] = target: T3, Candida antarctica lipase B (CALB) circularly permuted variant cp150, S150/V149; assay: Initial rate of hydrolysis of pNB, cp150 (S150/V149)
Excerpt: as §1, §2
as §3, with “Corporation). […]” for “Corporation).”

[18] = target: T5, Candida antarctica lipase B (CALB), wild type, SEQ ID NO: 2, L1/P317; assay: Initial rate of hydrolysis of p-nitrophenol butyrate (pNB), wild type; settings: kcat/KM (variant)/kcat/KM (wild type)
Excerpt: as §1, with “octanoate. […]” for “octanoate.”
as §5

[19] = 50 mM K-phosphate pH 7.0, room temperature
[20] = kcat/KM (variant)/kcat/KM (wild type)
[21] = 50 mM K-phosphate pH 7.5, room temperature

T8 sequence (P41365 26-342, stated change not applied): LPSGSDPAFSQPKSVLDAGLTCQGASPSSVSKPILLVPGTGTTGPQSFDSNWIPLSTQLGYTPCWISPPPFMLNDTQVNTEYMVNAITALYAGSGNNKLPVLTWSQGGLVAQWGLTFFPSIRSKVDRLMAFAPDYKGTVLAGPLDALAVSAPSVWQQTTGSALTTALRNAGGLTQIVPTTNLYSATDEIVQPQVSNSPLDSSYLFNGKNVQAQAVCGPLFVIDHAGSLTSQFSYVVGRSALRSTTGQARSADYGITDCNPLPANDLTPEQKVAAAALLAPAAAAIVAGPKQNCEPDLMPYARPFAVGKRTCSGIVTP

`CCCCCCCC(=O)Oc1c(F)cc2c(C)cc(=O)oc2c1F` [DiFMU octanoate, 6,8-difluoro-4-methylumbelliferyl octanoate] gave a Km [1, 19] of 2.3 ± 0.3 µM, a relative specificity [1, 20] of 15.6 and a kcat ([1]; pH 7.0, room temperature) of 0.48 ± 0.0183 s⁻¹. The kcat/KM ([1]; pH 7.0, room temperature) was 208000 M⁻¹ s⁻¹, the Km [2, 19] was 5.6 ± 0.8 µM and the relative specificity [2, 20] was 0.13. The kcat ([2]; pH 7.0, room temperature) was 0.0083 ± 0.00083 s⁻¹, the kcat/KM ([2]; pH 7.0, room temperature) was 1700 M⁻¹ s⁻¹ and the Km [3, 19] was 5.5 ± 0.9 µM. For the same compound, the relative specificity [3, 20] was 0.5, the kcat ([3]; pH 7.0, room temperature) was 0.0367 ± 0.0033 s⁻¹ and the kcat/KM ([3]; pH 7.0, room temperature) was 6700 M⁻¹ s⁻¹. It also gave a Km [4, 19] of 6.1 ± 0.7 µM, a relative specificity [4, 20] of 0.7 and a kcat ([4]; pH 7.0, room temperature) of 0.0583 ± 0.0033 s⁻¹. The kcat/KM ([4]; pH 7.0, room temperature) was 9500 M⁻¹ s⁻¹, the relative specificity [5] was 1.0 and the Km [6, 19] was 3.5 ± 0.5 µM. It also gave a relative specificity [6, 20] of 0.4, a kcat ([6]; pH 7.0, room temperature) of 0.025 ± 0.0033 s⁻¹ and a kcat/KM ([6]; pH 7.0, room temperature) of 5830 M⁻¹ s⁻¹. For the same compound, the Km [7, 19] was 2 ± 0.5 µM, the relative specificity [7, 20] was 0.6 and the kcat ([7]; pH 7.0, room temperature) was 0.017 ± 0.0017 s⁻¹. For the same compound, the kcat/KM ([7]; pH 7.0, room temperature) was 8300 M⁻¹ s⁻¹, the Km [8, 19] was 2.7 ± 0.8 µM and the relative specificity [8, 20] was 1.0. The kcat ([8]; pH 7.0, room temperature) was 0.035 ± 0.0033 s⁻¹, the kcat/KM ([8]; pH 7.0, room temperature) was 13000 M⁻¹ s⁻¹ and the Km [9, 19] was 3 ± 0.3 µM. The relative specificity [9, 20] was 0.6, the kcat ([9]; pH 7.0, room temperature) was 0.025 ± 0.0017 s⁻¹ and the kcat/KM ([9]; pH 7.0, room temperature) was 8300 M⁻¹ s⁻¹.

`CCCC(=O)Oc1ccc([N+](=O)[O-])cc1` [pNB, p-Nitrophenyl butyrate] showed a Km [10, 21] of 550 ± 70 µM, a relative specificity [10, 20] of 1.2 and a kcat ([10]; pH 7.5, room temperature) of 8.02 ± 0.483 s⁻¹. It also gave a kcat/KM ([10]; pH 7.5, room temperature) of 14500 M⁻¹ s⁻¹, a Km [11, 21] of 550 ± 50 µM and a relative specificity [11, 20] of 0.4. It also gave a kcat ([11]; pH 7.5, room temperature) of 2.97 ± 0.12 s⁻¹, a kcat/KM ([11]; pH 7.5, room temperature) of 5330 M⁻¹ s⁻¹ and a Km [12, 21] of 820 ± 100 µM. The relative specificity [12, 20] was 0.7, the kcat ([12]; pH 7.5, room temperature) was 7.25 ± 0.467 s⁻¹ and the kcat/KM ([12]; pH 7.5, room temperature) was 8830 M⁻¹ s⁻¹. For the same compound, the Km [13, 21] was 580 ± 90 µM, the relative specificity [13, 20] was 7.1 and the kcat ([13]; pH 7.5, room temperature) was 50.85 ± 3.82 s⁻¹. It also gave a kcat/KM ([13]; pH 7.5, room temperature) of 87700 M⁻¹ s⁻¹, a Km [14, 21] of 500 ± 30 µM and a relative specificity [14, 20] of 0.5. It also gave a kcat ([14]; pH 7.5, room temperature) of 2.85 ± 0.067 s⁻¹, a kcat/KM ([14]; pH 7.5, room temperature) of 5670 M⁻¹ s⁻¹ and a Km [15, 21] of 510 ± 90 µM. The relative specificity [15, 20] was 1.4, the kcat ([15]; pH 7.5, room temperature) was 8.67 ± 0.75 s⁻¹ and the kcat/KM ([15]; pH 7.5, room temperature) was 17000 M⁻¹ s⁻¹. It also gave a Km [16, 21] of 690 ± 90 µM, a relative specificity [16, 20] of 0.01 and a kcat ([16]; pH 7.5, room temperature) of 0.1 ± 0.0083 s⁻¹. The kcat/KM ([16]; pH 7.5, room temperature) was 170 M⁻¹ s⁻¹, the Km [17, 21] was 425 ± 50 µM and the relative specificity [17, 20] was 1.1. The kcat ([17]; pH 7.5, room temperature) was 5.78 ± 0.267 s⁻¹, the kcat/KM ([17]; pH 7.5, room temperature) was 13700 M⁻¹ s⁻¹ and the relative specificity [18] was 1.0.
